Reference: patent US20100041696A1, “Compounds” (priority 2006, published 2010)
Where a name gives a salt, the structure may show the parent alone.

What follows are molecules tested against T1, SCD (stearoyl-CoA desaturase), SCD-containing rat microsomes (Rattus norvegicus, UniProt P07308) (assay: in vitro assay for SCD activity based on production of [3H]H2O from [9,10-3H] stearoyl Coenzyme A). Conditions: SCD-containing rat microsomes (2 μg protein), substrate [9,10-3H] stearoyl Coenzyme A 1 μM, 5 minutes preincubation, 6 minutes incubation; read-out: average pIC50 value, in vitro assay for SCD activity (converted).
T1 construct: SCD-containing rat microsomes (2 μg protein); from tissue
T1 sequence (P07308 1-358): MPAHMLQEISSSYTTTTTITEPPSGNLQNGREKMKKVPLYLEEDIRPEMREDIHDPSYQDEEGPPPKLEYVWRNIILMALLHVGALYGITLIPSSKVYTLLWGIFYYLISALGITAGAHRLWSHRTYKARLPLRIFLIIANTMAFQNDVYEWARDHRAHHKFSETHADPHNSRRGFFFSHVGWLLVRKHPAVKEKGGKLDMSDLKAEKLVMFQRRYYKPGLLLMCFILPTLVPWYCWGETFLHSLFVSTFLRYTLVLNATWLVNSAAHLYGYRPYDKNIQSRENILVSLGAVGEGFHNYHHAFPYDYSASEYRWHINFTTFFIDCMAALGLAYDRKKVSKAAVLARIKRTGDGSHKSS
Type: biochemical
Protocol: The compounds of the present invention may be analysed in vitro for SCD activity using an assay based on the production of [^3H]H2O, which is released during the enzyme-catalyzed generation of the monounsaturated fatty acyl CoA product. The assay is performed in a 96-well filtration plates. The titrated substrate used in the assay is the [9,10-^3H] stearoyl Coenzyme A. After incubation for 6 minutes of SCD-containing rat microsomes (2 μg protein) and substrate (1 μM), the labelled fatty acid acyl-CoA species and microsomes are absorbed with charcoal and separated from [^3H]H2O by centrifugation. The formation of [^3H]H2O is used as a measure of SCD activity. Compounds at concentrations starting at 10 μM to 0.1 nM or vehicle (DMSO) are preincubated for 5 minutes with the microsomes before addition of the substrate. The concentration-responses are fitted with sigmoidal curves to obtain IC50 values.

| Compound | IC50 |
| --- | --- |
| CC(C)c1ccc(Cn2cc(NC(=O)c3ccc4c(c3)CCN(C(=O)OC(C)(C)C)C4)cn2)cc1 [1,1-dimethylethyl 6-{[(1-{[4-(1-methylethyl)phenyl]methyl}-1H-pyrazol-4-yl)amino]carbonyl}-3,4-dihydro-2(1H)-isoquinolinecarboxylate] | > 10 µM |
| O=C(Nc1cnn(Cc2ccccc2Cl)c1)c1ccc2c(c1)CCNC2 [Example 8, N-{1-[(2-chlorophenyl)methyl]-1H-pyrazol-4-yl}-1,2,3,4-tetrahydro-6-isoquinolinecarboxamide] | 3.16 to 10 µM |
| O=C(Nc1ccc2c(c1)CCNC2)c1cnn(Cc2ccc(Cl)cc2)c1 [1-[(4-chlorophenyl)methyl]-N-(1,2,3,4-tetrahydro-6-isoquinolinyl)-1H-pyrazole-4-carboxamide hydrochloride] | 3.16 to 10 µM |
| CC(C)c1nn(Cc2ccc(Cl)c(Cl)c2)cc1C(=O)Nc1ccc2c(c1)CCNC2 [1-[(3,4-dichlorophenyl)methyl]-3-(1-methylethyl)-N-(1,2,3,4-tetrahydro-6-isoquinolinyl)-1H-pyrazole-4-carboxamide hydrochloride] | > 10 µM |
| CC(C)c1c(C(=O)Nc2ccc3c(c2)CCNC3)cnn1Cc1ccc(Cl)c(Cl)c1 [1-[(3,4-dichlorophenyl)methyl]-5-(1-methylethyl)-N-(1,2,3,4-tetrahydro-6-isoquinolinyl)-1H-pyrazole-4-carboxamide hydrochloride] | > 10 µM |
| O=C(Nc1cnn(Cc2ccccc2C(F)(F)F)c1)c1ccc2c(c1)CCNC2 [N-(1-{[2-(trifluoromethyl)phenyl]methyl}-1H-pyrazol-4-yl)-1,2,3,4-tetrahydro-6-isoquinolinecarboxamide hydrochloride] | 3.16 to 10 µM |
| Cc1ccc(Cn2cc(NC(=O)c3ccc4c(c3)CCNC4)cn2)cc1 [Example 14, N-{1-[(4-methylphenyl)methyl]-1H-pyrazol-4-yl}-1,2,3,4-tetrahydro-6-isoquinolinecarboxamide] | 3.16 to 10 µM |
| CC(C)COc1ccc(Cl)cc1Cn1cc(NC(=O)c2ccc3c(c2)CCN(C(=O)OC(C)(C)C)C3)cn1 [1,1-dimethylethyl 6-({[1-({5-chloro-2-[(2-methylpropyl)oxy]phenyl}methyl)-1H-pyrazol-4-yl]amino}carbonyl)-3,4-dihydro-2(1H)-isoquinolinecarboxylate] | > 10 µM |
| O=C(Nc1ccc2c(c1)CCNC2)c1cnn(Cc2ccc(C(F)(F)F)cc2)c1 [N-(1,2,3,4-tetrahydro-6-isoquinolinyl)-1-{[4-(trifluoromethyl)phenyl]methyl}-1H-pyrazole-4-carboxamide hydrochloride] | > 10 µM |

The next lines start with the values.

| IC50 | Compound |
| --- | --- |
| 3.16 to 10 µM | N#Cc1cccc(Cn2cc(NC(=O)c3ccc4c(c3)CCNC4)cn2)c1 [N-{1-[(3-cyanophenyl)methyl]-1H-pyrazol-4-yl}-1,2,3,4-tetrahydro-6-isoquinolinecarboxamide hydrochloride] |
| 3.16 to 10 µM | O=C(Nc1cnn(COc2ccc(Cl)cc2)c1)c1ccc2c(c1)CCNC2 [N-(1-{[(4-chlorophenyl)oxy]methyl}-1H-pyrazol-4-yl)-1,2,3,4-tetrahydro-6-isoquinolinecarboxamide hydrochloride] |
| > 10 µM | CC(C)c1ccc(Cn2cc(NC(=O)c3ccc4c(c3)CCNC4)cn2)cc1 [N-(1-{[4-(1-methylethyl)phenyl]methyl}-1H-pyrazol-4-yl)-1,2,3,4-tetrahydro-6-isoquinolinecarboxamide hydrochloride] |
| > 10 µM | CC(C)COc1ccc(Cl)cc1Cn1cc(NC(=O)c2ccc3c(c2)CCNC3)cn1 [N-[1-({5-chloro-2-[(2-methylpropyl)oxy]phenyl}methyl)-1H-pyrazol-4-yl]-1,2,3,4-tetrahydro-6-isoquinolinecarboxamide hydrochloride] |
| 3.16 to 10 µM | O=C(Nc1cnn(Cc2ccccc2)c1)c1ccc2c(c1)CCNC2 [N-[1-(phenylmethyl)-1H-pyrazol-4-yl]-1,2,3,4-tetrahydro-6-isoquinolinecarboxamide hydrochloride] |
